Measured values published in patent US20250084056A1, “SUBSTITUTED OXOISOINDOLINYL PIPERIDINE-2,6-DIONE COMPOUNDS” (BRISTOL-MYERS SQUIBB COMPANY, priority 2023, published 2025).

Legend:
Format in all cases: cell-based
GSPT1 = GSPT1 (Homo sapiens, UniProt P15170+Q96SW2); test: GSPT1 Cellular Degradation Assay (DF15-GSPT1-ePL); set-up: expressed in transfected cells; settings: DF15-GSPT1-ePL cells, 20 hours
Summary of the method: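 Human DF15 cells co-expressing a GSPT1–ePL fusion were treated with compound in RPMI 1640/10% FBS for 20 h at 37 °C. GSPT1 level was read by enzyme-fragment-complementation luminescence after 60 min with detection reagent. The reference degrader at […] defined 75% response; DC50 and Dmax were reported.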

Phospho-Rb (Ser807/811) = test: Phospho-Retinoblastoma (pRB) Cellular Assay; settings: Homo sapiens, OVCAR-3, NIH OVCAR3 cells, 24 hours; for IC50: concentration giving 50% response; for Emax: maximum response, reference compound at 10 μM = 100%, read-out: pRB Ymax
Summary of the method: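 OVCAR3 cells seeded overnight, then dosed with serial dilutions for 24 h at 37° C. Lysed with kit mix plus phosphatase inhibitor, ≥4 h at room temperature, read on EnVision; 100% response set by reference compound at 10 μM, giving IC50 and Ymax.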

Cyclin E1 = Cyclin E1 (Homo sapiens, UniProt P24864+Q96SW2); test: Cyclin E1 Cellular Degradation Assay (MSD); set-up: endogenous in cells; host or cells: OVCAR3; settings: for DC50 / Dmax: Cyclin E1 cellular degradation; for Dmax: maximum degradation; for Ratio of GSPT1 DC50/Cyclin E1 DC50: selectivity for degradation of Cyclin E1 over GSPT1
Cyclin E1, sequence (P24864 whole entry): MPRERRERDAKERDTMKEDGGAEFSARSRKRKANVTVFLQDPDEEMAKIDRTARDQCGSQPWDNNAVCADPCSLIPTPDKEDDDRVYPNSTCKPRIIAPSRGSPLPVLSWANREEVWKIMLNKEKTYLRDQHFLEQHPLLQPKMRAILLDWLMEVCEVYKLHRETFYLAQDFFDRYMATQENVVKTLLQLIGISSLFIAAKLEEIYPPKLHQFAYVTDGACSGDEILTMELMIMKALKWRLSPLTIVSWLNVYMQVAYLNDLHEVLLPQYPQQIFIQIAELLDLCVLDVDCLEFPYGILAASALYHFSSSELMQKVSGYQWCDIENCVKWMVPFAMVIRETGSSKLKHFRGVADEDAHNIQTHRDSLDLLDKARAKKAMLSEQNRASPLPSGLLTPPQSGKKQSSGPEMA
Cyclin E1, sequence (Q96SW2 whole entry): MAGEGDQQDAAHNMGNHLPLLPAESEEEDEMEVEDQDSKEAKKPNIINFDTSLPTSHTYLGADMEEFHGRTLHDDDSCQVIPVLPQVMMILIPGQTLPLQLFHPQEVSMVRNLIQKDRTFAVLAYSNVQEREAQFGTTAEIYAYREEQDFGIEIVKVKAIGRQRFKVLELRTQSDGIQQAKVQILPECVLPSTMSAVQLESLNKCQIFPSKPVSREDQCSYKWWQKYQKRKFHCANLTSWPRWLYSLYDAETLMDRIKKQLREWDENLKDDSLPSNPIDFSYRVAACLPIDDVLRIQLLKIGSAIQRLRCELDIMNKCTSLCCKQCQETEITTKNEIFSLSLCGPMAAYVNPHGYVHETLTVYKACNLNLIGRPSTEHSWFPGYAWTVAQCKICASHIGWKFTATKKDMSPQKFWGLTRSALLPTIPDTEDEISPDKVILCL
Cyclin E1, sequence (Q16531 whole entry partner): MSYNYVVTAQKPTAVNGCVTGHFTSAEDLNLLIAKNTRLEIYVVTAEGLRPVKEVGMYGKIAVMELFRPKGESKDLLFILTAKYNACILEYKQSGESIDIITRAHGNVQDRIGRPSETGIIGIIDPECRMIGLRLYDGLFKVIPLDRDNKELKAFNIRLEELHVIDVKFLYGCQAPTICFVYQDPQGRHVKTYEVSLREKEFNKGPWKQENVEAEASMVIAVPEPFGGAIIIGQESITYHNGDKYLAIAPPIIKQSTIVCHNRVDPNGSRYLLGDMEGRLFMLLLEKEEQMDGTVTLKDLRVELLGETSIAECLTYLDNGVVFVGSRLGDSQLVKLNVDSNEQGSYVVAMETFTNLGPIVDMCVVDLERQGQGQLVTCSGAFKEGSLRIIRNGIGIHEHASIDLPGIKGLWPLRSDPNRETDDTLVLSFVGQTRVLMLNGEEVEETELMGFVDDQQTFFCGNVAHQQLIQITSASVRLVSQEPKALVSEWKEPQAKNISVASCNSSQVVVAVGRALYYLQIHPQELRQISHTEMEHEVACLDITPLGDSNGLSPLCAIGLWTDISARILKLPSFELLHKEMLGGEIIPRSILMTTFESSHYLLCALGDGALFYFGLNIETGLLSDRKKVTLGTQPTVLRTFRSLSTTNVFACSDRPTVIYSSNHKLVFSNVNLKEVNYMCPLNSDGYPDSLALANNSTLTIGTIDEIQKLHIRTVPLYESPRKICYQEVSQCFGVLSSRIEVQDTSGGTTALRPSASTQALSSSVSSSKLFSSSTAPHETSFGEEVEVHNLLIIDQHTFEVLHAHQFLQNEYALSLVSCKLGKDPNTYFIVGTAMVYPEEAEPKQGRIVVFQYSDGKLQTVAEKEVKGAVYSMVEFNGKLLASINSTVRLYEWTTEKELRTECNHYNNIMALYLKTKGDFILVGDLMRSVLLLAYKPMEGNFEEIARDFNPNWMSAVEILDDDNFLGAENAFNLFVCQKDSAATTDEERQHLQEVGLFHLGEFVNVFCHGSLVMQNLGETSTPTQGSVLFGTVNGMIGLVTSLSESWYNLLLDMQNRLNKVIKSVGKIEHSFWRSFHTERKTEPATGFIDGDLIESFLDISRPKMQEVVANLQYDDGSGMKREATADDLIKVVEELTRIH
Summary of the method: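 OVCAR3 cells treated with compound for 24 h at 37 °C, lysed, and cyclin E1 measured by MSD sandwich immunoassay (rabbit capture, mouse detection anti-CCNE1). Reference degrader at […] defined 110% response; DC50 and Dmax derived from response.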

GSPT1, sequence (P15170 whole entry, the tested form may be a part): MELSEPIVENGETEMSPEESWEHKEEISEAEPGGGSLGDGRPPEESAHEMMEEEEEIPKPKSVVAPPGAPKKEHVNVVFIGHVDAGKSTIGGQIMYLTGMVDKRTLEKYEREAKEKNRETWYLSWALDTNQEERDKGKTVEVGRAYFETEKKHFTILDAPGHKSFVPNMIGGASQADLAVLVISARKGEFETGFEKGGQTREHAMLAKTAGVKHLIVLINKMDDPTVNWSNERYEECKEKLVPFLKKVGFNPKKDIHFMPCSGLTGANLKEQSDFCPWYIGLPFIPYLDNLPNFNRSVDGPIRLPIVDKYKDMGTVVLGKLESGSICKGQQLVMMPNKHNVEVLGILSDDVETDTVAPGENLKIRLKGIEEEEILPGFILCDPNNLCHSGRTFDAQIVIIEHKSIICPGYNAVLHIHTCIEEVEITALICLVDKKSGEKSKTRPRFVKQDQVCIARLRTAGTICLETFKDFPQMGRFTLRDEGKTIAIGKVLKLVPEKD
GSPT1, sequence (Q96SW2 whole entry, the tested form may be a part): as the sequence (Q96SW2 whole entry) above
GSPT1, sequence (Q16531 whole entry partner, the tested form may be a part): as the sequence (Q16531 whole entry partner) above

With COc1c(COC(=O)Nc2ccc(Oc3cc(F)c(F)cc3C)cc2C)ccc2c1C(=O)N(C1CCC(=O)NC1=O)C2 (centres unmarked) [Example 74, [2-(2,6-dioxopiperidin-3-yl)-4-methoxy-3-oxo-2,3-dihydro-1H-isoindol-5-yl]methyl N-[4-(4,5-difluoro-2-methylphenoxy)-2-methylphenyl]carbamate] the DC50 (GSPT1) was > 14000 nM, the Dmax (GSPT1) was 37% and the IC50 (Phospho-Rb (Ser807/811)) was 53 nM. It also gave an Emax (Phospho-Rb (Ser807/811)) of 116%, a DC50 (Cyclin E1) of 222 nM and a Dmax (Cyclin E1) of 111%. For the same compound, the “Ratio of GSPT1 DC50/Cyclin E1 DC50” value (Cyclin E1) was >63.
For COc1cc(Oc2ccc(F)cc2C)ccc1NC(=O)OCc1ccc2c(c1OC)C(=O)N(C1CCC(=O)NC1=O)C2 (centres unmarked) [Example 75, [2-(2,6-dioxopiperidin-3-yl)-4-methoxy-3-oxo-2,3-dihydro-1H-isoindol-5-yl]methyl N-[4-(4-fluoro-2-methylphenoxy)-2-methoxyphenyl]carbamate], the DC50 (GSPT1) was > 14000 nM, the Dmax (GSPT1) was 23% and the IC50 (Phospho-Rb (Ser807/811)) was 287 nM. For the same compound, the Emax (Phospho-Rb (Ser807/811)) was 120%, the DC50 (Cyclin E1) was 328 nM and the Dmax (Cyclin E1) was 109%. For the same compound, the “Ratio of GSPT1 DC50/Cyclin E1 DC50” value (Cyclin E1) was >43.
For COc1c(COC(=O)Nc2ccc(Oc3ccc(F)cc3C)cc2C)ccc2c1C(=O)N(C1CCC(=O)NC1=O)C2 (centres unmarked) [Example 76, [2-(2,6-dioxopiperidin-3-yl)-4-methoxy-3-oxo-2,3-dihydro-1H-isoindol-5-yl]methyl N-[4-(4-fluoro-2-methylphenoxy)-2-methylphenyl]carbamate], the DC50 (GSPT1) was > 14000 nM, the Dmax (GSPT1) was 33% and the IC50 (Phospho-Rb (Ser807/811)) was 104 nM. The Emax (Phospho-Rb (Ser807/811)) was 122%, the DC50 (Cyclin E1) was 267 nM and the Dmax (Cyclin E1) was 111%. For the same compound, the “Ratio of GSPT1 DC50/Cyclin E1 DC50” value (Cyclin E1) was >52.
With COc1c(COC(=O)Nc2ccc(Oc3cc(F)c(F)c(F)c3)cc2)ccc2c1C(=O)N(C1CCC(=O)NC1=O)C2 (centres unmarked) [Example 77, [2-(2,6-dioxopiperidin-3-yl)-4-methoxy-3-oxo-2,3-dihydro-1H-isoindol-5-yl]methyl N-[4-(3,4,5-trifluorophenoxy)phenyl]carbamate] the DC50 (GSPT1) was > 14000 nM, the Dmax (GSPT1) was 32% and the IC50 (Phospho-Rb (Ser807/811)) was 163 nM. It also gave an Emax (Phospho-Rb (Ser807/811)) of 94%, a DC50 (Cyclin E1) of 284 nM and a Dmax (Cyclin E1) of 113%. For the same compound, the “Ratio of GSPT1 DC50/Cyclin E1 DC50” value (Cyclin E1) was >49.
For COc1c(COC(=O)Nc2ccc(Oc3cc(F)c(F)cc3C)cc2)ccc2c1C(=O)N(C1CCC(=O)NC1=O)C2 (centres unmarked) [Example 78, [2-(2,6-dioxopiperidin-3-yl)-4-methoxy-3-oxo-2,3-dihydro-1H-isoindol-5-yl]methyl N-[4-(4,5-difluoro-2-methylphenoxy)phenyl]carbamate], the DC50 (GSPT1) was > 14000 nM, the Dmax (GSPT1) was 2% and the IC50 (Phospho-Rb (Ser807/811)) was 165 nM. The Emax (Phospho-Rb (Ser807/811)) was 126%, the DC50 (Cyclin E1) was 316 nM and the Dmax (Cyclin E1) was 113%. For the same compound, the “Ratio of GSPT1 DC50/Cyclin E1 DC50” value (Cyclin E1) was >44.
In the case of COc1c(COC(=O)Nc2ccc(Oc3ccccc3F)cc2)ccc2c1C(=O)N(C1CCC(=O)NC1=O)C2 (centres unmarked) [Example 79, [2-(2,6-dioxopiperidin-3-yl)-4-methoxy-3-oxo-2,3-dihydro-1H-isoindol-5-yl]methyl N-[4-(2-fluorophenoxy)phenyl]carbamate], the DC50 (GSPT1) is reported as > 14000 nM, the Dmax (GSPT1) is reported as 31% and the IC50 (Phospho-Rb (Ser807/811)) is reported as 128 nM. It also gave an Emax (Phospho-Rb (Ser807/811)) of 120%, a DC50 (Cyclin E1) of 375 nM and a Dmax (Cyclin E1) of 112%. For the same compound, the “Ratio of GSPT1 DC50/Cyclin E1 DC50” value (Cyclin E1) was >37.
COc1c(COC(=O)Nc2ccc(Oc3ccccc3Cl)cc2)ccc2c1C(=O)N(C1CCC(=O)NC1=O)C2 (centres unmarked) [Example 80, [2-(2,6-dioxopiperidin-3-yl)-4-methoxy-3-oxo-2,3-dihydro-1H-isoindol-5-yl]methyl N-[4-(2-chlorophenoxy)phenyl]carbamate] was tested, and the DC50 (GSPT1) was > 14000 nM, the Dmax (GSPT1) was 40% and the IC50 (Phospho-Rb (Ser807/811)) was 73 nM. For the same compound, the Emax (Phospho-Rb (Ser807/811)) was 119%, the DC50 (Cyclin E1) was 181 nM and the Dmax (Cyclin E1) was 115%. The “Ratio of GSPT1 DC50/Cyclin E1 DC50” value (Cyclin E1) was >77.
In the case of COc1c(COC(=O)Nc2ccc(Oc3ccc(F)cc3C)cc2)ccc2c1C(=O)N(C1CCC(=O)NC1=O)C2 (centres unmarked) [Example 81, [2-(2,6-dioxopiperidin-3-yl)-4-methoxy-3-oxo-2,3-dihydro-1H-isoindol-5-yl]methyl N-[4-(4-fluoro-2-methylphenoxy)phenyl]carbamate], the DC50 (GSPT1) is reported as > 14000 nM, the Dmax (GSPT1) is reported as 37% and the IC50 (Phospho-Rb (Ser807/811)) is reported as 64 nM. The Emax (Phospho-Rb (Ser807/811)) was 103%, the DC50 (Cyclin E1) was 92 nM and the Dmax (Cyclin E1) was 110%. The “Ratio of GSPT1 DC50/Cyclin E1 DC50” value (Cyclin E1) was >152.
COc1c(COC(=O)Nc2ccc(Oc3ccc(F)c(C)c3)cc2C)ccc2c1C(=O)N(C1CCC(=O)NC1=O)C2 (centres unmarked) [Example 82, [2-(2,6-dioxopiperidin-3-yl)-4-methoxy-3-oxo-2,3-dihydro-1H-isoindol-5-yl]methyl N-[4-(4-fluoro-3-methylphenoxy)-2-methylphenyl]carbamate] was tested, and the DC50 (GSPT1) was > 14000 nM, the Dmax (GSPT1) was 25% and the IC50 (Phospho-Rb (Ser807/811)) was 354 nM. It also gave an Emax (Phospho-Rb (Ser807/811)) of 97%, a DC50 (Cyclin E1) of 327 nM and a Dmax (Cyclin E1) of 109%. The “Ratio of GSPT1 DC50/Cyclin E1 DC50” value (Cyclin E1) was >43.
In the case of COc1c(COC(=O)Nc2ccc(Oc3ccc(F)c(Cl)c3)cc2C)ccc2c1C(=O)N(C1CCC(=O)NC1=O)C2 (centres unmarked) [Example 83, [2-(2,6-dioxopiperidin-3-yl)-4-methoxy-3-oxo-2,3-dihydro-1H-isoindol-5-yl]methyl N-[4-(3-chloro-4-fluorophenoxy)-2-methylphenyl]carbamate], the DC50 (GSPT1) is reported as > 14000 nM, the Dmax (GSPT1) is reported as 31% and the IC50 (Phospho-Rb (Ser807/811)) is reported as 172 nM. It also gave an Emax (Phospho-Rb (Ser807/811)) of 117%, a DC50 (Cyclin E1) of 136 nM and a Dmax (Cyclin E1) of 110%. For the same compound, the “Ratio of GSPT1 DC50/Cyclin E1 DC50” value (Cyclin E1) was >103.
With COc1c(COC(=O)Nc2ccc(Oc3ccc(F)cc3)cc2)ccc2c1C(=O)N(C1CCC(=O)NC1=O)C2 (centres unmarked) [Example 84, [2-(2,6-dioxopiperidin-3-yl)-4-methoxy-3-oxo-2,3-dihydro-1H-isoindol-5-yl]methyl N-[4-(4-fluorophenoxy)phenyl]carbamate] the DC50 (GSPT1) was > 14000 nM, the Dmax (GSPT1) was 22% and the IC50 (Phospho-Rb (Ser807/811)) was 254 nM. The Emax (Phospho-Rb (Ser807/811)) was 95%, the DC50 (Cyclin E1) was 94 nM and the Dmax (Cyclin E1) was 108%. The “Ratio of GSPT1 DC50/Cyclin E1 DC50” value (Cyclin E1) was >149.
In the case of COc1c(COC(=O)Nc2ccc(Oc3ccccc3C(F)F)cc2)ccc2c1C(=O)N(C1CCC(=O)NC1=O)C2 (centres unmarked) [Example 85, [2-(2,6-dioxopiperidin-3-yl)-4-methoxy-3-oxo-2,3-dihydro-1H-isoindol-5-yl]methyl N-{4-[2-(difluoromethyl)phenoxy]phenyl}carbamate], the DC50 (GSPT1) is reported as > 14000 nM, the Dmax (GSPT1) is reported as 35% and the IC50 (Phospho-Rb (Ser807/811)) is reported as 117 nM. For the same compound, the Emax (Phospho-Rb (Ser807/811)) was 98%, the DC50 (Cyclin E1) was 181 nM and the Dmax (Cyclin E1) was 105%. The “Ratio of GSPT1 DC50/Cyclin E1 DC50” value (Cyclin E1) was >77.
For COc1c(COC(=O)Nc2ccc(Oc3ccccc3C(F)F)cc2F)ccc2c1C(=O)N(C1CCC(=O)NC1=O)C2 (centres unmarked) [Example 86, [2-(2,6-dioxopiperidin-3-yl)-4-methoxy-3-oxo-2,3-dihydro-1H-isoindol-5-yl]methyl N-{4-[2-(difluoromethyl)phenoxy]-2-fluorophenyl}carbamate], the DC50 (GSPT1) was > 14000 nM, the Dmax (GSPT1) was 33% and the IC50 (Phospho-Rb (Ser807/811)) was 176 nM. The Emax (Phospho-Rb (Ser807/811)) was 112%, the DC50 (Cyclin E1) was 205 nM and the Dmax (Cyclin E1) was 107%. For the same compound, the “Ratio of GSPT1 DC50/Cyclin E1 DC50” value (Cyclin E1) was >68.
For COc1c(COC(=O)Nc2ccc(Oc3ccccc3C3CC3)cc2)ccc2c1C(=O)N(C1CCC(=O)NC1=O)C2 (centres unmarked) [Example 87, [2-(2,6-dioxopiperidin-3-yl)-4-methoxy-3-oxo-2,3-dihydro-1H-isoindol-5-yl]methyl N-[4-(2-cyclopropylphenoxy)phenyl]carbamate], the DC50 (GSPT1) was > 14000 nM, the Dmax (GSPT1) was 39% and the IC50 (Phospho-Rb (Ser807/811)) was 272 nM. It also gave an Emax (Phospho-Rb (Ser807/811)) of 98%, a DC50 (Cyclin E1) of 414 nM and a Dmax (Cyclin E1) of 100%. For the same compound, the “Ratio of GSPT1 DC50/Cyclin E1 DC50” value (Cyclin E1) was >34.
